The values that follow are results of earlier work, collected in patent US9374996B2, “Agroformulation comprising copolymer of acrylic acid, poly(alkylene glycol) (meth)acrylate, and alkyl (meth)acrylate” (priority 2012, dated 2016).

Values after ≈ are worked out from the molar mass of the structure shown.

The conditions of the series: at 20° C.

In the case of `Cn1cc(C(=O)Nc2ccccc2-c2cc(F)c(F)c(F)c2)c(C(F)F)n1` [fluxapyroxad], the solubility in water was 3.88 µg/mL (≈ 10.2 µM).
